Here are results for four compounds from patent US20250195504A1, “NALTREXAMINE DERIVATIVES BEARING 5-MEMBER HETEROCYCLIC RING SYSTEMS AND OPIOID RECEPTOR MODULATORS” (VIRGINIA COMMONWEALTH UNIVERSITY, priority 2022, published 2025).

The structures appear in SMILES notation. Structures can show the parent of a compound that is named as a salt.

As usually defined, the Ki is a measure of affinity in units of concentration, obtained from inhibition or displacement. For orientation: IC50 means the concentration that inhibits the measured activity by half. Usually efflux ratio stands for a quotient of directional permeabilities that is used to spot active efflux.

The target of one data set is T1, hM2 (Homo sapiens, UniProt P08172).
T1 sequence (P08172 1-466): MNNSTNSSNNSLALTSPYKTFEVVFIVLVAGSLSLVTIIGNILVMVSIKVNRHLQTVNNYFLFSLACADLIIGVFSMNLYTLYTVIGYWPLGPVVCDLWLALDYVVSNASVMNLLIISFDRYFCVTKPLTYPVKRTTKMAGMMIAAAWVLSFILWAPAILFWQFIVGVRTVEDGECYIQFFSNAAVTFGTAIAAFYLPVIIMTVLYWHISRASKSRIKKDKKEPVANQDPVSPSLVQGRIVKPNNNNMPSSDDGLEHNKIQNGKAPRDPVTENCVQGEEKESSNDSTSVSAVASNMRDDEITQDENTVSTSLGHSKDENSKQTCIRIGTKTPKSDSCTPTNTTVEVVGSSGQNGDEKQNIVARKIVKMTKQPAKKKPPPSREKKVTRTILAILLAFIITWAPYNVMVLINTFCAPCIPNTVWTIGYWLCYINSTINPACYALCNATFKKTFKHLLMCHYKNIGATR
Briefly: side effect profiling, hM2. It is filed as binding. To be noted: for hM2 binding: at 10 uM.

A further data set addresses T2, MOR-CHO cells (Mus musculus, UniProt P42866).
T2 construct: expressed in transfected cells; host or cells: CHO
The data set is described as follows: Calcium flux on MOR-CHO cells, acting as antagonists against DAMGO. It is filed as cell-based.

The target of a further data set is T3, hM1 (Homo sapiens, UniProt P11229).
T3 sequence (P11229 1-460): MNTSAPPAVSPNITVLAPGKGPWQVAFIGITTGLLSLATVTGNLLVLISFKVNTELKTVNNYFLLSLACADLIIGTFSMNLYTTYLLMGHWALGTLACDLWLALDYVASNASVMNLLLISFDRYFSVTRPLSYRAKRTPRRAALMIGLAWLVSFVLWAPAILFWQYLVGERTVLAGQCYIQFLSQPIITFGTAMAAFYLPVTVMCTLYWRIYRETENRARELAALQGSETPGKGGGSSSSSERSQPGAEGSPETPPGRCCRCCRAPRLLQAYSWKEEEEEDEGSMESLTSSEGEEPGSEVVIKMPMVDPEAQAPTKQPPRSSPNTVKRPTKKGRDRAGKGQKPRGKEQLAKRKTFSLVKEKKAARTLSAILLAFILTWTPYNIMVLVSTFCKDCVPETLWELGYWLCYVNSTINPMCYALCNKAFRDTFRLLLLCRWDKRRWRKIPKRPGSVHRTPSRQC
Briefly: side effect profiling, hM1. It is filed as binding. Particulars: for hM1 binding: at 10 uM.

A further data set has as its target Na channel. The data set is described as follows: side effect profiling, Na channel. It is filed as binding.
The subject of the next data set is morphine-pelleted mice. The data set is described as follows: opioid withdrawal study in morphine-pelleted mice. To be noted: for withdrawal symptoms (wet-dog shakes, escape jumps, paw tremors): 1 mg/kg s.c., compared to 1 mg/kg NLX; for withdrawal symptoms at higher doses: 5 mg/kg and above, s.c.; for Withdrawal study: wet-dog shakes, escape jumps, paw tremors: 1 mg/kg dose, compared to 1 mg/kg naloxone.

Data set [1] deals with male Swiss Webster mice. Briefly: warm-water tail immersion (tail flick / tail-withdrawal) assay, antinociception. It is filed as in vivo, mouse. Particulars: mice. As to the method: In this assay, the duration for which mice kept their tails in the warm water was recorded.
All thirty-six compounds' antinociception were examined in tail immersion assay first to preclude any opioid receptor agonists.
Swiss Webster mice (six male mice for each group, 25-35 g, 6-8 weeks old) were used in this assay. Antinociception for all compounds was examined in male Swiss Webster mice. […] To prevent tissue damage, a 10 s maximum cutoff time was imposed. Antinociceptive response was calculated as the percentage of maximum possible effect (% MPE), where % MPE=[(test−control latency)/(10−control latency)]×100.
(§1) Warm-water tail immersion assay is a well-established assay for evaluating opioid analgesics, especially MOR agonists. […] In this context, all 24 compounds were first evaluated for their acute antinociception tail-withdrawal assay (FIG. 5A).
(§2) The tail-withdrawal test was performed using a water bath with the temperature maintained at 56±0.1° C. Baseline latency was measured before any injections. Each mouse was gently wrapped in a cloth with only the tail exposed. The distal one-third of the tail was immersed perpendicularly in water, and the mouse rapidly flicked the tail from the bath was seen as the first sign of discomfort. The duration of time the tail remained in the water bath was counted as the baseline latency. Untreated mice with baseline latency reaction times ranging from 2 to 4 seconds were used. Test latency was obtained 20 min later after each injection. A 10-second maximum cutoff latency was used to prevent any tissue damage. Antinociception was quantified as the percentage of maximal possible effect (% MPE), which was calculated as % MPE=[(test latency−control latency)/(10−control latency)]×100. The % MPE value was calculated for each mouse using 6 mice per group. Testing compounds were given 10 mg/kg (s.c.) to each mouse.

The next data set has as its target hNOP (Homo sapiens, UniProt P41146). Briefly: side effect profiling, hNOP. In kind it is binding. Particulars: for hNOP binding: at 10 uM.
For data set [2], the system named is male Swiss Webster mice. Briefly: warm-water tail immersion assay, antagonism of morphine's antinociception. Particulars: for Tail flick assay (dose response) AD50: 95% CL. It is filed as in vivo, mouse. As to the method:
Following this single dose assessment, in vivo dose-response studies with eight identified antagonists were conducted.
Antinociceptive effect of synthesized compounds was determined using the warm-water tail immersion assay. Swiss Webster mice (six male mice for each group, 25-35 g, 6-8 weeks old) were used in this assay. Antinociception for all compounds was examined in male Swiss Webster mice. […] To prevent tissue damage, a 10 s maximum cutoff time was imposed. Antinociceptive response was calculated as the percentage of maximum possible effect (% MPE), where % MPE=[(test−control latency)/(10−control latency)]×100.
as §1, §2
(Hot-plate and tail-flick tests time the reaction to a heat stimulus.)

The target of a further data set is hα1D (Homo sapiens, UniProt P25100). Briefly: side effect profiling, hα1D. It is filed as binding.
Data set [3] deals with self-administration rat model. The data set is described as follows: Self-administration Studies, Food vs Drug (heroin choice). It is filed as in vivo.
A further data set concerns the target h5-HT1b (Homo sapiens, UniProt P28222). The data set is described as follows: side effect profiling, h5-HT1b. To be noted: for h5-HT1b binding: at 10 uM. It is filed as binding.
For data set [4], the system named is Serotonin receptor, dopamine receptor, biogenic amine transporters. Briefly: side effect profiling panel binding. To be noted: up to 10 μM, except the targets listed.
Data set [5] can be described thus: Self-administration Studies, Abuse liability. To be noted: in vivo.
In the next data set the target is hNK1 (Homo sapiens, UniProt P25103). The data set is described as follows: side effect profiling, hNK1. In kind it is binding. To be noted: at 10 uM.
The next data set deals with Potassium channel hERG (Homo sapiens, UniProt Q12809). Briefly: side effect profiling, hERG channel. Particulars: for hERG channel binding: at 10 uM.
The target in the next data set is MOR (Mus musculus, UniProt P42866). To be noted: read-out: Binding Affinity Ki (nM) ± SEM, MOR; Tables A, B.
The next data set in a line: Caco-2 permeability. Particulars: human, Caco-2, pH 7.4. Background: Passage across Caco-2 layers is used to estimate intestinal permeability.

hNOP, sequence (P41146 whole entry): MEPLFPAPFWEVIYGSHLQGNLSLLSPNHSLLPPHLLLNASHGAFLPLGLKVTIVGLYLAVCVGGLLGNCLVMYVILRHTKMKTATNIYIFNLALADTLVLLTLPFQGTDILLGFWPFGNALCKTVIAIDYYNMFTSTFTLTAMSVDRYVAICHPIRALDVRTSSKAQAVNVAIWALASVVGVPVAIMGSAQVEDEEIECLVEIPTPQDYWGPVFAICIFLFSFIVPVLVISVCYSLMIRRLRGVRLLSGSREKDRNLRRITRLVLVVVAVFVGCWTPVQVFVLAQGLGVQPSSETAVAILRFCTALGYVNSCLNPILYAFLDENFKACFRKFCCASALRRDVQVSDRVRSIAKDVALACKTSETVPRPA
h5-HT1b, sequence (P28222 whole entry): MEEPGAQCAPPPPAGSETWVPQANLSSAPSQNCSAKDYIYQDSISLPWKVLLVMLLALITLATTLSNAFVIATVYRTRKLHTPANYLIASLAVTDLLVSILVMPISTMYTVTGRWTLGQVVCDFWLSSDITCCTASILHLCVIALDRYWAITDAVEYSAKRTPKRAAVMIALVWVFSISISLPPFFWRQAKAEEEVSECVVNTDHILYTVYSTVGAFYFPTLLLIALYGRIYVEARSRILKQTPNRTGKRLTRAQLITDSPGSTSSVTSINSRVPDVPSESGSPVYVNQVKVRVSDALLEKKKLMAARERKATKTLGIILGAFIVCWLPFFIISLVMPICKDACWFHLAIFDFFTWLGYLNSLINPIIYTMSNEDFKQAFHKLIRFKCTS
Potassium channel hERG, sequence (Q12809 whole entry): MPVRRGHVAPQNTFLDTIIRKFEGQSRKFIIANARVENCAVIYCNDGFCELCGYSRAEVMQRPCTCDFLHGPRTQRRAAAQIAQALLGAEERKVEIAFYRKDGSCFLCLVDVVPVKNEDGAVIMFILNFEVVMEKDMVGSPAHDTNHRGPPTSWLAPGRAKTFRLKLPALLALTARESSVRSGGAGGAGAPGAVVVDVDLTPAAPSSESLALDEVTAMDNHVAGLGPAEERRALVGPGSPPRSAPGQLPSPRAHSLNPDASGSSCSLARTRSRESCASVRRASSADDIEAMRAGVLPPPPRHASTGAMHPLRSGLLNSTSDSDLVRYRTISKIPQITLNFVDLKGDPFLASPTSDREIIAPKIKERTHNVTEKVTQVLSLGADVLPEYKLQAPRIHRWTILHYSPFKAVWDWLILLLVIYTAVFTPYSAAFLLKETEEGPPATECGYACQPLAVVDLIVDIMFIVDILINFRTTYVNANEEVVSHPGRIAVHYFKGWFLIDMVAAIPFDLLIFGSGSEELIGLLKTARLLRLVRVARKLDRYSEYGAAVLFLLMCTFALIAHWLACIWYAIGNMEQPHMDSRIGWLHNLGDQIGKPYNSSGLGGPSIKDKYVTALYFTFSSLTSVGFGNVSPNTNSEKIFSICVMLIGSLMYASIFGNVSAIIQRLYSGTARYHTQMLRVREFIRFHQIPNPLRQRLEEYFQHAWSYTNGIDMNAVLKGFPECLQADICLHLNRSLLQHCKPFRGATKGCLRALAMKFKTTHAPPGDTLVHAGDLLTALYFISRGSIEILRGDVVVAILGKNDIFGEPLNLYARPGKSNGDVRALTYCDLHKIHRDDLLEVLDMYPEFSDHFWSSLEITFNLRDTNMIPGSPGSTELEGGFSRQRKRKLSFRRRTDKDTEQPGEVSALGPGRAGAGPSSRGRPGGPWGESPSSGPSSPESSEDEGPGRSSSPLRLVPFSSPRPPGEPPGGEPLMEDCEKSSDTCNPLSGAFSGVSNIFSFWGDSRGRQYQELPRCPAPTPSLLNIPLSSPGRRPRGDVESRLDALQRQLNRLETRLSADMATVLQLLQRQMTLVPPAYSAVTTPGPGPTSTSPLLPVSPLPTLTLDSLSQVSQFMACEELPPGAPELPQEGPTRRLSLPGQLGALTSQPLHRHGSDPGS
hNK1, sequence (P25103 whole entry): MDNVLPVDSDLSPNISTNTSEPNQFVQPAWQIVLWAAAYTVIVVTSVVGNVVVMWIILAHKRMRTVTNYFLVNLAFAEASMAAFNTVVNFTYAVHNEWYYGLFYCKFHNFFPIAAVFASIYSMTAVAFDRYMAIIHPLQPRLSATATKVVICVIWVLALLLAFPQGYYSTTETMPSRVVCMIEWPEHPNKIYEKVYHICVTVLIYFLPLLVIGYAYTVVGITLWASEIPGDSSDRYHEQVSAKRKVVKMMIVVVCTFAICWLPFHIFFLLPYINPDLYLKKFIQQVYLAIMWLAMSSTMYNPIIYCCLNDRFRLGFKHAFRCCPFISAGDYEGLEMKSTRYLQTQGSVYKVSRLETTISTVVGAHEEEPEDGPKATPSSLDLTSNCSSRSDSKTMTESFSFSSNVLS
T2 sequence (P42866 whole entry): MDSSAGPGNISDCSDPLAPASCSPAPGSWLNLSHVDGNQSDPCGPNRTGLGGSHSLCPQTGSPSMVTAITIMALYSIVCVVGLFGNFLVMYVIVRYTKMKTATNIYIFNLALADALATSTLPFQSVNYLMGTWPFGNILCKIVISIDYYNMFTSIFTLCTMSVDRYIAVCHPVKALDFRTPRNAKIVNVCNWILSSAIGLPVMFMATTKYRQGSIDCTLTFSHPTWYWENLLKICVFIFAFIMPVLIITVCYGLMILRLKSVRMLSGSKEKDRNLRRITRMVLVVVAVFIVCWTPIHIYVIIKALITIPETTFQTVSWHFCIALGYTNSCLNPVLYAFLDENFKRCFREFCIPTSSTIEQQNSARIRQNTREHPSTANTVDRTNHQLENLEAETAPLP
hα1D, sequence (P25100 whole entry): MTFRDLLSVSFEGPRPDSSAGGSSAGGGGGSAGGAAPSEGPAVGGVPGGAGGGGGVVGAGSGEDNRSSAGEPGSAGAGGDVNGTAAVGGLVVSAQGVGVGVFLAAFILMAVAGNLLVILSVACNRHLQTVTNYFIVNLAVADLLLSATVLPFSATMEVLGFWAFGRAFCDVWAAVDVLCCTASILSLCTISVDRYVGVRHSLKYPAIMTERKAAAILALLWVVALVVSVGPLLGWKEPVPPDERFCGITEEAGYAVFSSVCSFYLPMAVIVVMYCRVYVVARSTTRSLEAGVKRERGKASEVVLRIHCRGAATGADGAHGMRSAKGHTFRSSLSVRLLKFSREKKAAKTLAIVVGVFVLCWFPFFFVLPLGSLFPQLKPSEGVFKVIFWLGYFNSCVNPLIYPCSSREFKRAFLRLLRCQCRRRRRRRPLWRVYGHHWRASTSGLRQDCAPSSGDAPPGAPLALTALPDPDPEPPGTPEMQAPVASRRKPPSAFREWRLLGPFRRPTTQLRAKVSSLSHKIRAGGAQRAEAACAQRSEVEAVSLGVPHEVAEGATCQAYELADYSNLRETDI
MOR, sequence (P42866 whole entry): as the sequence (P42866 whole entry) above
Experimental for Caco-2 permeability: Human epithelial colorectal adenocarcinoma (Caco-2) cells (HTB-37) were cultured in T75 flasks using complete Dulbecco's Modified Eagles Medium (DMEM) containing 10% fetal bovine serum (FBS), 1% glutamine, 1% penicillin and 1% streptomycin, at 37° C. in a 5% CO2 atmosphere. Cells were passaged at 80-90% confluency using 0.05% trypsin-EDTA and the medium was changed every other day. Following this, the cells were trypsinized, suspended in medium and applied to a Millipore 96-well plate where they were cultured as monolayers at a density of 25,000 cells/well. The cells were incubated in a 37° C./5% CO2 incubator to allow cell attachment and proliferation. Media was changed every 2-3 days for 21 days when cells reached 100% confluency. […] Following centrifugation, the supernatant for donor and receiver side samples was analyzed by HPLC-MS/MS to determine peak area ratios.
Data was expressed as Papp (cm/s):
where VR is the volume of the receiver chamber. […] CD, mid is the calculated mid-point concentration of the test compound in the donor side, which is the mean value of the donor concentration at time 0 minute and the donor concentration at the end time point. […] Concentrations of the test compound were expressed as peak areas of the test compound.

On hM2, `O=C(N[C@H]1CC[C@@]2(O)[C@H]3Cc4ccc(O)c5c4[C@@]2(CCN3CC2CC2)[C@H]1O5)c1cccs1` [Example 1 compound 25, 17-Cyclopropylmethyl-3,14β-dihydroxy-4,5α-epoxy-6α-(2′-thienylcarboxamido)morphinan hydrochloride] registered a Ki of 1.9 µM and a hM2 binding of 81%. Moreover, the IC50 at MOR-CHO cells was 0.0267 µM. For the same compound, at hM1, affinity was put at a Ki of 8.4 µM and the hM1 binding turned out to be 53%. Besides, affinity on Na channel was put at a Ki of 9.9 µM. For the same compound, the Na channel binding in the data set with Na channel (at 10 uM) amounted to 55%. Moreover, in the data set on morphine-pelleted mice, the “withdrawal symptoms (wet-dog shakes, escape jumps, paw tremors)” value is “significantly fewer wet-dog shakes, escape jumps, and paw tremors”; the “withdrawal symptoms at higher doses” value is “started showing wet dog shakes and jumps at a 5 mg/kg dose”. Moreover, the “Withdrawal study: wet-dog shakes, escape jumps, paw tremors at high dose” value in the data set with morphine-pelleted mice (high dose (5 to 20 mg/kg), compared to naloxone at 1 mg/kg, listed as NAT, hydrochloride) is recorded as “lower compared to naloxone at 1 mg/kg”. In addition, the “Tail flick assay, percentage maximum possible effect (% MPE)” value in the data set on male Swiss Webster mice [1] (single dose 10 mg/kg) is “effect (% MPE) of NAT (10 mg/kg) was 15.2”. On hNOP, affinity was put at a Ki of 6.4 µM and the hNOP binding is 60%.

Take `O=C(N[C@H]1CCC2(O)C3Cc4ccc(O)c5c4[C@@]2(CCN3CC2CC2)[C@H]1O5)c1ccc[nH]1` (stereo partly drawn) [Example 1 compound 1, 17-Cyclopropylmethyl-3,14β-dihydroxy-4,5α-epoxy-6a-[(2′-pyrrolyl)carboxamido]morphinan hydrochloride]: the “Tail flick assay (dose response) AD50” value in the data set with male Swiss Webster mice [2] (mice) was “The AD50 of NAY was determined as 4.71 (1.61- mg/kg”. In addition, on hM2, the Ki was determined as 7.28 µM and the hM2 binding was found to be 58%. On hα1D, this compound had a Ki of 0.771 µM. The same compound displayed a hα1D binding at hα1D (at 10 uM) of 84%. Besides, in data set [3], the “Self-administration Studies Food vs Drug” value was “reduce heroin choice and increase food choice”. On h5-HT1b, this compound registered an inhibition constant (Ki) of 0.482 µM and a h5-HT1b binding of 85%. Also, the “Withdrawal study: wet-dog shakes, escape jumps, paw tremors” value in the data set on morphine-pelleted mice is recorded as “At 1 mg/kg dose of NAY produced NO wet-dog”. Besides, the “side effect profiling, binding to panel” value in data set [4] is listed as “No significant binding up”. Moreover, the “Self-administration Studies Abuse liability” value in data set [5] is on record as “No significant abuse liability”. Besides, the “Tail flick assay, anti-nociceptive effect (in words)” value with male Swiss Webster mice [1] (single dose, dose printed with the value) was “No anti-nociceptive effect up to 100 mg/kg”. At hNK1, this compound had a hNK1 binding of 89%. For the same compound, on Potassium channel hERG, the Ki turned out to be 8.6 µM and the hERG channel binding entry is “Potassium channel hERG (52% at 10 uM),”. At hNOP, this compound registered a Ki of 1.44 µM and a hNOP binding of 59%.

On to `O=C(N[C@H]1CC[C@@]2(O)[C@H]3Cc4ccc(O)c5c4[C@@]2(CCN3CC2CC2)[C@H]1O5)c1nccs1` [NTZ, 17-Cyclopropylmethyl-3,14β-dihydroxy-4,5α-epoxy-6α-(2′-thiazolylcarboxamido)morphinan hydrochloride], for which the “Tail flick assay, antagonism of morphine's antinociceptive effect (in words)” value in the data set with male Swiss Webster mice [2] (mice, single dose 10 mg/kg) is listed as “significantly antagonized morphine's antinociceptive”. Also, the “Tail flick assay (dose response) AD50” value in the data set on male Swiss Webster mice [2] (mice) was “The AD50 of VZMN283 was determined as 0.043 mg/kg”. At hM2, the hM2 binding entry is recorded as “hM2 (88% at 10 uM)”. Moreover, the hM1 binding entry on hM1 is listed as “hM1 (53% at 10 uM)”. In addition, the “Self-administration Studies Food vs Drug” value in [3] was “reduce heroin choice and increase food choice in a”. Besides, the Ki on MOR was found to be 0.25 ± 0.03 nM. The “Withdrawal study: wet-dog shakes, escape jumps, paw tremors” value in the data set on morphine-pelleted mice is given as “fewer symptoms than naloxone at the same dose”. The “Withdrawal study: precipitation of withdrawal syndromes” value with morphine-pelleted mice (up to 0.1 mg/kg) is listed as “No significant precipitation of withdrawal syndromes”. The “side effect profiling, binding to panel” value in data set [4] is “No significant binding up”. The “Self-administration Studies Abuse liability” value in data set [5] is “No significant abuse liability”. Besides, the efflux ratio at 1 h, 10 μM in “Caco-2 permeability” is 2.5.

Take `O=C(N[C@H]1CC[C@@]2(O)[C@H]3Cc4ccc(O)c5c4[C@@]2(CCN3CC2CC2)[C@H]1O5)c1ccsc1` [Example 1 compound 31, 17-Cyclopropylmethyl-3,14β-dihydroxy-4,5α-epoxy-6α-(3′-thienylcarboxamido)morphinan hydrochloride]: in the data set with male Swiss Webster mice [2] (Example 1 compounds, 10 mg/kg s.c. in the presence of morphine (10 mg/kg)), the “antagonism of morphine's antinociceptive effect (in words)” value is “significantly antagonized morphine's antinociceptive effect”. In addition, the “AD50 mg/kg (95% CL) to antagonize morphine mediated antinociception” value in the data set with male Swiss Webster mice [2] (Example 1 compounds, s.c., mice, morphine 10 mg/kg) amounted to 1.51 mg/kg. Also, on hM2, the hM2 binding result was “hM2 (82% at 10 uM)”. The half-inhibitory concentration (IC50) on MOR-CHO cells stood at 0.0289 µM. Also, the hM1 binding entry at hM1 is listed as “hM1 (62% at 10 uM)”. Besides, the “Self-administration Studies Food vs Drug” value in data set [3] was “reduce heroin choice and increase food choice in a”. The h5-HT1b binding entry at h5-HT1b is listed as “h5-HT1b (98% at 10 uM)”. Moreover, in the data set with morphine-pelleted mice, the “Withdrawal study: wet-dog shakes, escape jumps, paw tremors” value is given as “produced significantly fewer wet-dog shakes,”; the “withdrawal symptoms (wet-dog shakes, escape jumps, paw tremors)” value is “significantly fewer wet-dog shakes, escape jumps, and paw tremors”; the “withdrawal symptoms at higher doses” value is “started showing wet dog shakes and jumps at a 5 mg/kg dose”. For the same compound, the “Self-administration Studies Abuse liability” value in data set [5] was “No significant abuse liability”. Further, at hNK1, the hNK1 binding entry is reported as “hNK1 (80% at 10 uM)”. Also, the hERG channel binding entry at Potassium channel hERG is on record as “hERG channel (58% at 10 uM)”.
